Data published in patent US20260000496A1, “MATERIALS AND METHODS FOR DRUG-INDUCED GINGIVAL OVERGROWTH” (Optimed Technology, Inc., priority 2019, published 2026).

Experiments:
MyD88 = experiment: Western blot of MyD88 in oral keratinocytes; format: cell-based, human; conditions: treated with CsA and LPS to simulate the disease, FIG. 35
Procedure: (§1) Cell Culture. Normal human oral keratinocytes (NOKSI) and fibroblast (HOF) cells were maintained in Dulbecco […] Eagle's medium (Sigma-Aldrich, St. Louis, MO, USA) supplemented with 10% fetal bovine serum (Atlas Bio-logicals, Fort Collins, CO, USA) and 100 units/mL penicillin and 100 μg/mL streptomycin (LifeTechnologies, Carlsbad, CA, USA). Cells were grown in incubator at 37° C. in a humidified chamber with 5% CO2.
Drugs treatment in cell culture. The cells were treated alone or with different combination of lipopolysaccharide, cyclosporine, phenytoin, and folic acid. All of them were purchased from Sigma-Aldrich (St. Louis, MO, USA). Each of them were used from 0 μg/ml to 40 μg/ml and the optimum concentration were found 10 μg/ml.
Western blot analysis. Cells were seeded in 60 mm plates with a density of 5×10^5 cells per plate and washed briefly with Dulbecco's phosphate-buffered saline (Gibco, Waltham, MA, USA). Whole cell lysates were prepared using RIPA lysis buffer containing protease inhibitor cocktail (Sigma-Aldrich). Total protein concentration was determined using the BCA reagent (Pierce, Waltham, MA, USA). 20 μg of total protein were resolved on sodium dodecyl sulfate-polyacrylamide gel electrophoresis and transferred to polyvinylidenedifluoride membrane and immunoblotted. The blots were incubated for 1 h in 1% bovine serum albumin (BSA) (Sigma-Aldrich) to block the non-specific bindings followed by over-night incubation in primary antibodies (MyD88 and pP65 from Cell Signaling Technology, and human LITAF ThermoFisher Sigma) at 4° C. on shaker. Next day, blots were washed for three times (10 min each) in Tris-buffered saline containing 1% Tween20 (TBST) followed by incubation with secondary antibody (Goat anti-rabbit IgG HRP) with 1:10,000 dilution for 1 h. Following washes, bands were visualized using gel documentation Imaging Systems (BioRad). The band intensities were quantified using software ImageJ (NIH, USA) and relative protein levels were normalized by β-actin (Cell Signaling). To perform the western blot of animal tissue samples, the gingival tissues were collected from both BABLB/c and C57BL/6 mice studies. The soft tissues were separated from the mandibular bone and then crunched. The Bradford assay was performed to measure the protein concentration of each sample. After normalization, 20 μg of whole tissue protein lysate were proceeded for western blot analysis.

[1] = tested on: Collagen type I alpha 1 (Col1a1); experiment: Collagen (Col1a1) expression in Human Oral Fibroblasts, QPCR; format: cell-based; conditions: fibroblasts treated with TGF-β, FIG. 1
Procedure: as §1
Human Oral Fibroblasts (HOF) cells were seeded in 60 mm plates with a density of 2.5×10^4/cm^2 and treated with condition (CM) media collected from Oral Keratinocytes containing LPS (10 μg/ml), CSA (10 μg/ml), Phenytoin (10 μg/ml), or Folic acid (10 μg/ml) and incubated for 24 hours. The Collagen type I alpha 1 (Col1a1) gene expression was determined by QPCR. HOF cells were treated with rTGF-β, SB-431542 (SB), rTNF-α, or TNF-α inhibitor (TNF-α inh). Quantitative real-time PCR results showing the expression of Col1a1 in HOF cells after the treatment. (p<0.05).

Substance	MyD88 expression in human oral keratinocytes after disease-simulating treatment (MyD88)	collagen expression in fibroblasts [1]
Lipopolysaccharide	robustly induce MyD88 expression	–
TGF-β	–	induce collagen expression
